From US20110301122A1, “HETEROAROMATIC COMPOUNDS FOR USE AS HIF INHIBITORS” (BAYER SCHERING PHARMA AKTIENGESELLSCHAFT, priority 2008, published 2011)

tested on: luciferase reporter under the control of an HIF-responsive sequence in HCT 116 cells; test: HIF-luciferase assay; assay type: cell-based; conditions: Homo sapiens; HCT 116 cells stably transfected with HIF-responsive luciferase reporter; hypoxia chamber (1% O2), 24 h; luminescence (Bright Glo)
Description: HCT 116 cells were transfected in a stable manner with a plasmid which contained a luciferase reporter under the control of an HIF-responsive sequence. These cells were sown in microtitre plates [20,000 cells/cavity in RPMI 1640 medium with 10% foetal calf serum (FCS) and 100 μg/ml of hygromycin]. Incubation was carried out overnight under standard conditions (5% CO2, 21% O2, 37° C., moistened). The following morning the cells were incubated with various concentrations of the test substances (0-10 μmol/l) in a hypoxia chamber (1% O2). After 24 h, Bright Glo reagent (Promega, Wisconsin, USA) was added in accordance with the manufacturer'/s instructions, and after 5 min the luminescence was measured. Cells which were incubated under normoxia served as background controls.

Row | SMILES | IC50
1 | CNc1ccc(Cn2nc(-c3nc(-c4ccc(C5(OC)CCC5)cc4)no3)cc2C)cn1 [Example 134] | 2 nM
2 | Cc1cc(-c2nc(-c3ccc(C(C)(C)C)cc3)no2)cn1Cc1ccc(Cl)nc1 [Example 72, 5-({4-[3-(4-tert-Butylphenyl)-1,2,4-oxadiazol-5-yl]-2-methyl-1H-pyrrol-1-yl}methyl)-2-chloro-pyridine] | 10 nM
3 | Cc1ccc(Cc2cc(-c3nc(-c4ccc(C(C)(C)C)cc4)no3)nn2C)cc1 [Example 94] | 20 nM
4 | CCNc1ccc(Cn2nc(-c3nc(-c4ccc([Si](C)(C)C)cc4)no3)cc2C)cn1 [Example 180, N-Ethyl-5-[(5-methyl-3-{3-[4-(trimethylsilyl)phenyl]-1,2,4-oxadiazol-5-yl}-1H-pyrazol-1-yl)-methyl]pyridin-2-amine] | 1 nM
5 | CNc1ccc(Cn2nc(-c3nc(-c4ccc(C5(COC)CCC5)cc4)no3)cc2C)cn1 [Example 171, 5-{[3-(3-{4-[1-(Methoxymethyl)cyclobutyl]phenyl}-1,2,4-oxadiazol-5-yl)-5-methyl-1H-pyrazol-1-yl]methyl}-N-methylpyridin-2-amine] | 0.4 nM
6 | CNc1ccc(Cn2nc(-c3nc(-c4ccc(C5CCOCC5)cc4)no3)cc2C)cn1 [Example 166, N-Methyl-5-[(5-methyl-3-{3-[4-(tetrahydro-2H-pyran-4-yl)phenyl]-1,2,4-oxadiazol-5-yl}-1H-pyrazol-1-yl)methyl]pyridin-2-amine] | 2 nM
7 | Cc1ccc(Cn2cc(-c3nc(-c4ccc(S(=O)(=O)C(F)(F)F)cc4)no3)cc2C)cc1 [Example 79] | 4 nM
8 | CNc1ccc(Cn2nc(-c3nc(-c4ccc([Si](C)(C)C)cc4)no3)cc2C)cn1 [Example 178, N-Methyl-5-[(5-methyl-3-{3-[4-(trimethylsilyl)phenyl]-1,2,4-oxadiazol-5-yl}-1H-pyrazol-1-yl)-methyl]pyridin-2-amine] | 0.6 nM
9 | Cc1cc(-c2nc(-c3ccc(OC(F)(F)F)cc3)no2)cn1Cc1ccc(NCCO)nc1 [Example 100, 2-({5-[(2-Methyl-4-{3-[4-(trifluoromethoxy)phenyl]-1,2,4-oxadiazol-5-yl}-1H-pyrrol-1-yl)-methyl]pyridin-2-yl}amino)ethanol] | 9 nM
10 | Cc1ccc(Cn2cc(-c3nc(-c4ccc(C5(F)COC5)cc4)no3)cc2C)cc1 [Example 81] | 10 nM
11 | Cc1cc(-c2nc(-c3ccc(OC(F)(F)F)cc3)no2)nn1Cc1ccnc(N(CCO)CCO)c1 [Example 33] | 30 nM
12 | Cc1cc(-c2nc(-c3ccc(OC(F)(F)F)cc3)no2)nn1Cc1ccc(N)nc1 [Example 135, 5-[(5-Methyl-3-{3-[4-(trifluoromethoxy)phenyl]-1,2,4-oxadiazol-5-yl}-1H-pyrazol-1-yl)methyl]-pyridin-2-amine] | 4 nM
13 | CNc1ccc(Cn2nc(-c3nc(-c4ccc(CN(C(C)C)C(C)C)cc4)no3)cc2C)cn1 [Example 184, 5-{[3-(3-{4-[(Diisopropylamino)methyl]phenyl}-1,2,4-oxadiazol-5-yl)-5-methyl-1H-pyrazol-1-yl]-methyl}-N-methylpyridin-2-amine] | 2 nM

Results, then the molecule that gave them:

Row | IC50 | SMILES
14 | 0.5 nM | CNc1ccc(Cn2cc(-c3nc(-c4ccc(C(C)(C)C(F)(F)F)cc4)no3)cc2C)cn1 [Example 196, N-Methyl-5-[(2-methyl-4-{3-[4-(1,1,1-trifluoro-2-methylpropan-2-yl)phenyl]-1,2,4-oxadiazol-5-yl}-1H-pyrrol-1-yl)methyl]pyridin-2-amine]
15 | 8 nM | Cc1cc(-c2nc(-c3ccc(OC(F)(F)F)cc3)no2)nn1Cc1ccc(NCCCO)nc1 [Example 25]
16 | 0.6 nM | CNc1ccc(Cn2nc(-c3nc(-c4ccc(C5(C(F)(F)F)CC5)cc4)no3)cc2C)cn1 [Example 183, N-Methyl-5-{[5-methyl-3-(3-{4-[1-(trifluoromethyl)cyclopropyl]phenyl}-1,2,4-oxadiazol-5-yl)-1H-pyrazol-1-yl]methyl}pyridin-2-amine]
17 | 2 nM | CNc1ccc(Cn2nc(-c3nc(-c4ccc(OC(F)(F)F)c(F)c4)no3)cc2C)cn1 [Example 182, 5-[(3-{3-[3-Fluoro-4-(trifluoromethoxy)phenyl]-1,2,4-oxadiazol-5-yl}-5-methyl-1H-pyrazol-1-yl)-methyl]-N-methylpyridin-2-amine]
18 | 10 nM | Cc1cc(-c2nc(-c3ccc(OC(F)(F)F)cc3)no2)nn1Cc1ccc(NCCO)nc1 [Example 29]
19 | 0.4 nM | CNc1ccc(Cn2nc(-c3nc(-c4ccc(C(C)(C)C(F)(F)F)cc4)no3)cc2C)cn1 [Example 121]
20 | 1 nM | CNc1ccc(Cn2nc(-c3nc(-c4ccc(OC(F)(F)F)cc4)no3)cc2C)cn1 [Example 24, N-Methyl-5-[(5-methyl-3-{3-[4-(trifluoromethoxy)phenyl]-1,2,4-oxadiazol-5-yl}-1H-pyrazol-1-yl)methyl]pyridin-2-amine]
21 | 1 nM | CNc1ccc(Cn2nc(-c3nc(-c4ccc(S(=N)(=O)C(F)(F)F)cc4)no3)cc2C)cn1 (racemic) [Example 188, N-Methyl-5-{[5-methyl-3-(3-{4-[S-(trifluoromethyl)sulphonimidoyl]phenyl}-1,2,4-oxadiazol-5-yl)-1H-pyrazol-1-yl]methyl}pyridin-2-amine]
22 | 2 nM | CNc1ccc(Cn2nc(-c3nc(-c4ccc(OC(F)(F)F)c(Cl)c4)no3)cc2C)cn1 [Example 181, 5-[(3-{3-[3-Chloro-4-(trifluoromethoxy)phenyl]-1,2,4-oxadiazol-5-yl}-5-methyl-1H-pyrazol-1-yl)-methyl]-N-methylpyridin-2-amine]
23 | 0.3 nM | CNc1ccc(Cn2nc(-c3nc(-c4ccc(C(C)(C)C)cc4)no3)cc2C)cn1 [Example 170, 5-({3-[3-(4-tert-Butylphenyl)-1,2,4-oxadiazol-5-yl]-5-methyl-1H-pyrazol-1-yl}methyl)-N-methyl-pyridin-2-amine]
24 | 1.5 nM | CNc1ccc(Cn2nc(-c3nc(-c4ccc(C5(F)CCC5)cc4)no3)cc2C)cn1 [Example 133]
25 | 0.6 nM | CN=S(=O)(c1ccc(-c2noc(-c3cc(C)n(Cc4ccc(NC)nc4)n3)n2)cc1)C(F)(F)F (racemic) [Example 187, N-Methyl-5-{[5-methyl-3-(3-{4-[N-methyl-S-(trifluoromethyl)sulphonimidoyl]phenyl}-1,2,4-oxa-diazol-5-yl)-1H-pyrazol-1-yl]methyl}pyridin-2-amine]
